Assay results taken from ChEMBL document CHEMBL1153400, “Fluorinated isatin derivatives. Part 1: synthesis of new N-substituted (S)-5-[1-(2-methoxymethylpyrrolidinyl)sulfonyl]isatins as potent caspase-3 and -7 inhibitors” (Bioorg Med Chem, 2009).

Legend:
Caspase-7 = target: T1, Caspase-7 (Homo sapiens, UniProt P55210); assay: Inhibition of human recombinant caspase 7
T1 sequence (P55210 whole entry): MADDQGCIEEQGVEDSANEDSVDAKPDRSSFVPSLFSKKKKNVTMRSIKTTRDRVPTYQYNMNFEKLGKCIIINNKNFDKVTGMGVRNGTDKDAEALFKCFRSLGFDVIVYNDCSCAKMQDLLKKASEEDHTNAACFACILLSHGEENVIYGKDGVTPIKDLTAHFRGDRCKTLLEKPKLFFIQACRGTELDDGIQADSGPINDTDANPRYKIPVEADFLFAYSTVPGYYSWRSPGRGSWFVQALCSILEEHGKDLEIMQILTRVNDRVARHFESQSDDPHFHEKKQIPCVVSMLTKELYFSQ

Caspase-3 = target: T2, Caspase-3 (Homo sapiens, UniProt P42574); assay: Inhibition of human recombinant caspase 3
T2 sequence (P42574 whole entry): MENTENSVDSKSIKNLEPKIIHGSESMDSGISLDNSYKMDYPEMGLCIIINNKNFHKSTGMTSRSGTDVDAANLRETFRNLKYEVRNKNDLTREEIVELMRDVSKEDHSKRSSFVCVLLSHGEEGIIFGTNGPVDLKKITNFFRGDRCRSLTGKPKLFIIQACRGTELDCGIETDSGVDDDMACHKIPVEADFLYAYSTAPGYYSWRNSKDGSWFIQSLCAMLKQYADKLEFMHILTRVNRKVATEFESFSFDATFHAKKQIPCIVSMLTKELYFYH

Row | Structure (SMILES) | IC50 (Caspase-7) [µM] | IC50 (Caspase-3) [µM]
1 | COC[C@@H]1CCCN1S(=O)(=O)c1ccc2c(c1)C(=O)C(=O)N2 | 0.17 | –
2 | COC[C@@H]1CCCN1S(=O)(=O)c1ccc2c(c1)C(=O)C(=O)N2CCCOCCCF | > 100 | > 100
3 | COC[C@@H]1CCCN1S(=O)(=O)c1ccc2c(c1)C(=O)C(=O)N2CCCOCCCOS(C)(=O)=O | > 100 | > 100
4 | CCCN1C(=O)C(F)(F)c2cc(S(=O)(=O)N3CCC[C@H]3COC)ccc21 | > 100 | > 100
5 | CCCN1C(=O)C(=O)c2cc(S(=O)(=O)N3CCC[C@H]3COC)ccc21 | 0.058 | 0.0053
6 | COC[C@@H]1CCCN1S(=O)(=O)c1ccc2c(c1)C(=O)C(=O)N2CCCOCCCO | 113 | –
7 | COC[C@@H]1CCCN1S(=O)(=O)c1ccc2c(c1)C(=O)C(=O)N2CCCCF | 0.028 | 0.041
8 | CCCCN1C(=O)C(=O)c2cc(S(=O)(=O)N3CCC[C@H]3COC)ccc21 | 0.0081 | 0.029
9 | CCN1C(=O)C(=O)c2cc(S(=O)(=O)N3CCC[C@H]3COC)ccc21 | 0.319 | 0.183
